Assay results: a compilation of properties of binary mixtures (doi:10.1016/j.jct.2017.08.033)

Test: xn = mol fraction of the nth substance listed
Conditions: 101 kPa

O=S(=O)([N-]S(=O)(=O)C(F)(F)F)C(F)(F)F.[Li+] + CC[n+]1ccn(C)c1.O=S(=O)([N-]S(=O)(=O)C(F)(F)F)C(F)(F)F
viscosity [mPa·s]
Conditions | 298.15 K | 313.15 K | 328.15 K | 343.15 K | 358.15 K
x2 = 0.6 | 588 | 225 | 108.2 | 60.8 | 38.3
x2 = 0.7 | 183 | 86.6 | 47.6 | 29.6 | 20.1
x2 = 0.8 | – | 47.5 | 28.5 | 18.8 | –
x2 = 0.9 | 46.6 | 27.4 | 17.8 | 12.42 | 9.08
x2 = 0.95 | 37.4 | 22.7 | 15.1 | 10.69 | 7.96

CC[n+]1ccn(C)c1.O=S(=O)([N-]S(=O)(=O)C(F)(F)F)C(F)(F)F + O=S(=O)([N-]S(=O)(=O)C(F)(F)F)C(F)(F)F.[Li+]
x1 = 1
Conditions | viscosity [mPa·s]
298.15 K | 30.7
328.15 K | 13.1
358.15 K | 7.12
